Results as given in the NIST ThermoML archive (doi:10.1016/j.jct.2008.12.022).
± gives the expanded uncertainty stated by the source.

Conditions: 101.33 kPa, Liquid; for viscosity: Capillary tube (Ostwald / Ubbelohde) method; for mass density: Pycnometric method

Row | Structure (SMILES) | viscosity (303.15 K) | mass density (303.15 K) | viscosity (313.15 K) | mass density (313.15 K) | viscosity (323.15 K) | mass density (323.15 K) | viscosity (333.15 K) | mass density (333.15 K) | viscosity (343.15 K) | mass density (343.15 K)
1 | CC(O)CO (stereo not given) [1,2-propanediol] | 32.4 ± 0.73 mPa·s | 1029 ± 1 kg/m3 | 19.12 ± 0.45 mPa·s | 1021 ± 1 kg/m3 | 12.1 ± 0.28 mPa·s | 1014 ± 1 kg/m3 | 8.19 ± 0.18 mPa·s | 1006 ± 1 kg/m3 | 5.704 ± 0.13 mPa·s | 999 ± 1 kg/m3
2 | OCCOCCOCCO [triethylene glycol] | 29.27 ± 0.7 mPa·s | 1116 ± 2 kg/m3 | 18.96 ± 0.46 mPa·s | 1109 ± 2 kg/m3 | 12.96 ± 0.31 mPa·s | 1101 ± 2 kg/m3 | 9.288 ± 0.22 mPa·s | 1093 ± 2 kg/m3 | 6.906 ± 0.17 mPa·s | 1086 ± 2 kg/m3
